Laboratory results: patent US8586638B2, “Parakeratosis inhibitor and skin preparation for external use” (priority 2003, dated 2013)
Where a SMILES comes first, the peptide text is derived from it.

Columns and labels:
[1] = test system: parakeratosis and skin roughness caused by oleic acid on the back of hairless mice; assay: Parakeratosis inhibition effect test: oleic acid applied to the back of hairless mice, visual skin roughness and parakeratosis level; assay type: in vivo, hairless mice (HR-1); design: key to Evaluation Visual (mean of 4 mice), skin roughness: 0.0 = no roughness, 2.0 = control application; 0.25 steps; conditions: for Evaluation Parakeratosis (mean of 4 mice): control 2.0; for Evaluation Visual (mean of 4 mice), skin roughness: score 0.0 no roughness, 2.0 control; for effect of inhibiting parakeratosis (conclusion from Table 1) / effect of inhibiting parakeratosis (conclusion from Table 4): hairless mice, oleic acid; for effect of inhibiting parakeratosis (conclusion from Table 1): first embodiment; for effect of inhibiting parakeratosis (conclusion from Table 4): fourth embodiment
Protocol: A 3 weight % water solution (including 30 weight % ethanol) was prepared as the evaluation specimen of the glycine derivatives in accordance with the invention 1. The pH was regulated to the range between 7.0 to 7.5, by using hydrochloric acid and sodium hydroxide. When the solubility was low, the solution was adjusted accordingly.
100 microliters of 10 weight % oleic acid (solvent: ethanol) was applied to the back of hairless mice (HR-1, Hoshino laboratory animals). Thereafter, 100 microliters of sample solution was applied (glycine derivatives in accordance with said invention 1) at each time. This procedure was repeated for 3 days. The day after the application, the skin condition of the backs was observed by using a CCD camera to evaluate the skin roughness (stratified ablation of the skin surface stratum corneum and red spots). The skin condition was evaluated visually, with scoring the skin condition of control application to 2.0 and the skin condition of no roughness to 0.0, in a 0.25 point step in response to the skin condition. At the same time, the skin surface stratum corneum of the back of hairless mice was peeled off by using a tape for staining the nucleus with haematoxylin to observe the degrees of parakeratosis (parakeratosis level) and evaluate in 0.25 step in the range from 1.0 to 3.0. The higher evaluation points indicates the larger number of parakeratotic corneocytes count, i.e., severer parakeratosis.
The samples to be evaluated of the glycine derivatives and the salts thereof as well as the aminosulfuric acid derivatives and the salts thereof in accordance with the invention 2 were prepared mainly 3 weight % solution (including 30 weight % ethanol, excluding Hydantoic acid and ACES which include 20 weight % ethanol). pH was regulated by using hydrochloric acid or sodium hydroxide to be 7.0 to 7.5. When the solubility was low, then the solution was prepared accordingly.
100 microliters of 10 weight % oleic acid (solvent: ethanol) was applied to the back of Hairless mice (HR-1, Hoshino laboratory animals) Thereafter, 100 microliters of sample solution (glycine derivatives in accordance with the invention 2) was applied thereon at each time. This procedure was repeated for 3 days. The day after the application, the skin condition of the backs was observed by using a CCD camera to evaluate the skin roughness (stratified ablation of the skin surface stratum corneum and red spots). The skin condition was evaluated visually, with scoring the skin condition of control application to 2.0 and the skin condition of no roughness to 0.0, in a 0.25 point step in response to the skin condition. At the same time, the skin surface stratum corneum of the back of hairless mice was peeled off by using a tape for staining the nucleus with haematoxylin to observe the degrees of parakeratosis and evaluate in 0.25 step in the range from 1.0 to 3.0. The higher evaluation points indicates the larger number of parakeratotic corneocytes count, i.e., severer parakeratosis.

[2] = test system: skin roughness caused by oleic acid on the back of hairless mice; assay: Inhibitory effect on skin roughness by the application of oleic acid (TEWL value); assay type: in vivo, hairless mice (HR-1); design: ΔTEWL: unit not given here; conditions: for ΔTEWL: after 10 weight % oleic acid, 3 days, four mice per group, control 12.0
Protocol: To study the inhibitory effect on the skin roughness by the application of oleic acid by the glycine derivatives and the salts thereof as well as the aminosulfuric acid derivatives and the salts thereof in accordance with the invention 2, the […] (TEWL value) before and after the application was measured to compare the difference therebetween with the value of control (control solution) in order to determine the effect. The preparation of samples and the application procedure were in accordance with the embodiment 4. The TEWL value was measured by means of TEWA meter TM210 (Courage+Khazaka Inc.).
100 microliters of 10 weight % oleic acid (solvent: ethanol) was applied to the back of hairless mice (HR-1, four in each group). Thereafter, 100 microliters of sample solutions (glycine derivatives and the salts thereof as well as the aminosulfuric acid derivatives and the salts thereof) in accordance with the invention 2 were applied at each time. This procedure was repeated for 3 days. The day after the application, TEWL value of the back of mice was measured and the values were averaged. The larger delta-TEWL value indicates severer aggravation of skin roughness.

[3] = Table 4, sample 3 weight % in aqueous 30 weight % ethanol (hydantoic acid: 20 weight % ethanol), range 1.0 to 3.0, higher = severer
[4] = Table 4, sample 3 weight % in aqueous 30 weight % ethanol (hydantoic acid: 20 weight % ethanol)
[5] = sample 3 weight %, larger = severer roughness
[6] = sample 3 weight % in aqueous 30 weight % ethanol, after 10 weight % oleic acid, 3 days, range 1.0 to 3.0, higher = severer
[7] = sample 3 weight % in aqueous 30 weight % ethanol, after 10 weight % oleic acid, 3 days
[8] = Table 4, sample 1 weight % in aqueous 30 weight % ethanol (ACES: 20 weight % ethanol), range 1.0 to 3.0
[9] = Table 4, sample 1 weight % in aqueous 30 weight % ethanol (ACES: 20 weight % ethanol)

## CC(=O)NCC(=O)O [N-acetylglycine, reference compound]
[1]; [3]
  Evaluation Parakeratosis (mean of 4 mice): 2.0
[1]; [4]
  Evaluation Visual (mean of 4 mice), skin roughness: 1.9
[2]; [5]
  ΔTEWL: 14.7

## CCCOC(=O)CN.Cl [glycine n-propyl ester HCL, glycine n-propyl ester hydrochloride]
[1]
  effect of inhibiting parakeratosis (conclusion from Table 1): have the effect of inhibiting parakeratosis
[1]; [6]
  Evaluation Parakeratosis (mean of 4 mice): 1.4
[1]; [7]
  Evaluation Visual (mean of 4 mice), skin roughness: 1.4

## O=C(O)CNC(=O)c1cccnc1 [nicotinoylglycine, N-nicotinoylglycine]
[2]; hairless mice, oleic acid, seventh embodiment
  decrease of delta-TEWL value as compared to the control solution (conclusion from Table 6): significant decrease of delta-TEWL value
[2]; sample 0.1 weight %
  ΔTEWL: 7.4

## CCOC(=O)CN.Cl [glycine ethyl ester HCL, glycine ethyl ester hydrochloride]
[1]
  effect of inhibiting parakeratosis (conclusion from Table 1): have the effect of inhibiting parakeratosis
[1]; [6]
  Evaluation Parakeratosis (mean of 4 mice): 1.1
[1]; [7]
  Evaluation Visual (mean of 4 mice), skin roughness: 1.2

## CC(=O)N[C@@H](CC(=O)O)C(=O)O [N-acetyl-L-aspartic acid]
[1]
  effect of inhibiting parakeratosis (conclusion from Table 1): have the effect of inhibiting parakeratosis
[1]; [6]
  Evaluation Parakeratosis (mean of 4 mice): 1.5
[1]; [7]
  Evaluation Visual (mean of 4 mice), skin roughness: 1.4

## O=S(=O)(O)CCNC1CCCCC1 [CHES, 2-(N-cyclohexylamino)ethane sulfonic acid, reference compound]
[1]; [3]
  Evaluation Parakeratosis (mean of 4 mice): 1.9
[1]; [4]
  Evaluation Visual (mean of 4 mice), skin roughness: 1.8
[1]
  effect of inhibiting parakeratosis (conclusion from Table 4): effect was not recognized
[2]; [5]
  ΔTEWL: 12.3

## O=C1CNC(=O)N1 [hydantoin, reference compound]
[1]; [8]
  Evaluation Parakeratosis (mean of 4 mice): 2.0
[1]; [9]
  Evaluation Visual (mean of 4 mice), skin roughness: 2.1
[1]
  effect of inhibiting parakeratosis (conclusion from Table 4): did not exhibit such effect
[2]; sample 1 weight %
  ΔTEWL: 17.6

## CCOC(=O)CN1CCCCC1 [ethyl-1-piperidine acetate, reference compound]
[1]; [3]
  Evaluation Parakeratosis (mean of 4 mice): 1.9
[1]; [4]
  Evaluation Visual (mean of 4 mice), skin roughness: 1.8
[2]; [5]
  ΔTEWL: 10.7

## O=C(O)CNC(CO)(CO)CO [tricine, reference compound]
[1]; Table 4, sample 2 weight % in aqueous 30 weight % ethanol, range 1.0 to 3.0
  Evaluation Parakeratosis (mean of 4 mice): 2.1
[1]; Table 4, sample 2 weight % in aqueous 30 weight % ethanol
  Evaluation Visual (mean of 4 mice), skin roughness: 2.0
[2]; sample 2 weight %
  ΔTEWL: 12.2

## NCC(N)=O [glycine amide, reference compound]
[1]; [6]
  Evaluation Parakeratosis (mean of 4 mice): 2.1
[1]; [7]
  Evaluation Visual (mean of 4 mice), skin roughness: 1.9

## O=C(O)CC[C@H](NS(=O)(=O)c1ccccc1)C(=O)O [N-benzenesulfonyl-L-glutamic acid, N-benzene-sulfonyl-L-glutamic acid]
[1]
  effect of inhibiting parakeratosis (conclusion from Table 1): have the effect of inhibiting parakeratosis
[1]; [6]
  Evaluation Parakeratosis (mean of 4 mice): 1.6
[1]; [7]
  Evaluation Visual (mean of 4 mice), skin roughness: 1.6

## O=C(O)CNC(=O)c1ccccc1 [hippuric acid, reference compound]
[1]; [8]
  Evaluation Parakeratosis (mean of 4 mice): 1.9
[1]; [9]
  Evaluation Visual (mean of 4 mice), skin roughness: 1.8
[2]; sample 1 weight %
  ΔTEWL: 10.5

## N=C(N)N1CCC(C(=O)O)CC1 [guanidinoisonipecotinic acid, reference compound]
[1]; [6]
  Evaluation Parakeratosis (mean of 4 mice): 2.2
[1]; [7]
  Evaluation Visual (mean of 4 mice), skin roughness: 2.0

## NCC(=O)NCC(=O)NCC(=O)O [glycyl-glycylglycine, reference compound] (H-Gly-Gly-Gly-OH)
[1]; sample 1 weight % in aqueous 30 weight % ethanol, after 10 weight % oleic acid, 3 days, range 1.0 to 3.0, higher = severer
  Evaluation Parakeratosis (mean of 4 mice): 2.0
[1]; sample 1 weight % in aqueous 30 weight % ethanol, after 10 weight % oleic acid, 3 days
  Evaluation Visual (mean of 4 mice), skin roughness: 1.9

## CCCCOC(=O)CN.Cl [glycine n-butyl ester HCL, glycine n-butyl ester hydrochloride]
[1]
  effect of inhibiting parakeratosis (conclusion from Table 1): have the effect of inhibiting parakeratosis
[1]; [6]
  Evaluation Parakeratosis (mean of 4 mice): 1.5
[1]; [7]
  Evaluation Visual (mean of 4 mice), skin roughness: 1.6

## O=C(O)CN(CCO)CCO [bicine, reference compound]
[1]; [3]
  Evaluation Parakeratosis (mean of 4 mice): 2.0
[1]; [4]
  Evaluation Visual (mean of 4 mice), skin roughness: 1.9
[2]; [5]
  ΔTEWL: 12.0

## CC(C(=O)O)N1CCOCC1 (centres unmarked) [methylmorpholino acetate, methylmorpholino acetic acid, reference compound]
[1]; [3]
  Evaluation Parakeratosis (mean of 4 mice): 2.0
[1]; [4]
  Evaluation Visual (mean of 4 mice), skin roughness: 1.9
[2]; [5]
  ΔTEWL: 10.8

## CC(C)(C)OC(=O)CN.Cl [glycine t-butyl ester HCL, glycine t-butyl ester hydrochloride]
[1]
  effect of inhibiting parakeratosis (conclusion from Table 1): have the effect of inhibiting parakeratosis
[1]; [6]
  Evaluation Parakeratosis (mean of 4 mice): 1.5
[1]; [7]
  Evaluation Visual (mean of 4 mice), skin roughness: 1.6

## O=C(O)CNCP(=O)(O)O [phosphomethylglycine, phosphonomethylglycine, reference compound]
[1]; [8]
  Evaluation Parakeratosis (mean of 4 mice): 2.1
[1]; [9]
  Evaluation Visual (mean of 4 mice), skin roughness: 1.9
[2]; sample 1 weight %
  ΔTEWL: 11.4

## O=C(O)C1CCNCC1 [isonipecotinic acid, isonipecotic acid]
[1]
  effect of inhibiting parakeratosis (conclusion from Table 1): have the effect of inhibiting parakeratosis
[1]; [6]
  Evaluation Parakeratosis (mean of 4 mice): 1.5
[1]; [7]
  Evaluation Visual (mean of 4 mice), skin roughness: 1.6

## O=S(=O)(O)CCCNC(CO)(CO)CO [TAPS, N-tris(hydroxymethyl)methyl-3-aminopropane sulfonic acid, reference compound]
[1]; [3]
  Evaluation Parakeratosis (mean of 4 mice): 2.1
[1]; [4]
  Evaluation Visual (mean of 4 mice), skin roughness: 2.0
[1]
  effect of inhibiting parakeratosis (conclusion from Table 4): effect was not recognized
[2]; [5]
  ΔTEWL: 12.0

## O=C(O)CC[C@H](NC(=O)c1ccccc1)C(=O)O [N-benzoyl-L-glutamic acid]
[1]
  effect of inhibiting parakeratosis (conclusion from Table 1): have the effect of inhibiting parakeratosis
[1]; [6]
  Evaluation Parakeratosis (mean of 4 mice): 1.6
[1]; [7]
  Evaluation Visual (mean of 4 mice), skin roughness: 1.7

## CCOC(=O)CCN.Cl [beta-alanine ethyl ester HCL, beta-alanine ethyl-ester hydrochloride]
[1]
  effect of inhibiting parakeratosis (conclusion from Table 1): have the effect of inhibiting parakeratosis
[1]; [6]
  Evaluation Parakeratosis (mean of 4 mice): 1.2
[1]; [7]
  Evaluation Visual (mean of 4 mice), skin roughness: 1.0

## Cl.NCC(=O)OCc1ccccc1 [glycine benzyl ester HCL, glycine benzyl ester hydrochloride]
[1]
  effect of inhibiting parakeratosis (conclusion from Table 1): have the effect of inhibiting parakeratosis
[1]; [6]
  Evaluation Parakeratosis (mean of 4 mice): 1.2
[1]; [7]
  Evaluation Visual (mean of 4 mice), skin roughness: 1.3
